The target of experiment [1] is NMDA receptor. Briefly: 3H-MK 801 (dizocilpine) binding in vitro, rat brain membranes. To be noted: displacement of 5 nM ³H-MK 801, washed rat brain membranes; high affinity values determined from biphasic displacement curves; read-out: IC₅₀. The procedure:
1. ^3H-MK 801 (dizocilpine) binding in vitro
³H-MK 801 binding was performed as described in Ransom, R.W. and Stec, N.L., J. Neurochem. 51 (1988) 830-836, with extensively washed rat brain membranes prepared according to the following scheme. Frozen whole rat brain was thawed and cerebellum and medulla oblongata were removed on ice. The tissue was then homogenized with an Ultra Turrax (maximal energy) during 30 sec at 4°C in 50 volumes of Tris·HC1 (5mM) with ethylenediaminetetraacetic acid (EDTA) disodium (10 mM, pH = 7.4). The homogenate was centrifuged at 48'000 x g for 10 min. The pellet was rehomogenized with the same volume of the same buffer and the homogenate was then incubated at 37°C for 10 min. After centrifugation the pellet was rehomogenized under the same conditions and frozen at -80°C in 35 ml fractions for at least 16 hours and not more than 2 weeks.
On the day of experiment, the homogenate was thawed 15 minutes at 37°C and centrifuged as above. The pellet was rehomogenized in 25 volumes of Tris·HC1 buffer (5mM, pH = 7.4) and the homogenate was recentrifuged. This procedure was repeated twice. The final pellet was rehomogenized in 25 volumes of Tris·HC1 buffer (5 mM, pH = 7.4) related to the original wet weight and used as such in the assay. Final concentration in the assay was 20 mg/ml.
300 µl of tracer solution (final concentration 5 nM ³H-MK 801) in Tris·HC1 buffer (5 mM, pH 7.4) were incubated with 100 µl of test solution (100 µl of Tris·HC1 buffer for the total binding or 100 µl of buffer plus N-(1-(2-thienyl)cyclohexyl)piperidine (TCP) (final concentration 0.1 µM) for non specific binding). Glutamate, glycine and spermidine (final concentrations 1nM) were added together in 100 µl volume. 500 µl of homogenate (final concentration 20 mg/ml) were then added in the plastic reaction tubes. After 2 hours of incubation at room temperature, the suspension was filtered (Whatmann GF/B, presoaked in 0.05% polyethylenimine for 2 hours) and washed 5 times with 3 ml of cold buffer. The air-dried (3 min) filters were counted in 10 ml of Ultima-gold (Packard) after agitation (10 min.) and standing for 2 hours at 3°C in vials.
These are high affinity values determined from biphasic displacement curves.

In experiment [2] the test system is embryonic rat cortices. Put plainly: Acute glutamate neurotoxicity in cortical cell cultures (lactate dehydrogenase release). The experiment is classed as cell-based. To be noted: neuronal degeneration, 500 µM glutamate for 5 to 30 minutes at room temperature, lactate dehydrogenase in supernatant after overnight at 37°C, read-out: IC₅₀. The procedure:
2. Acute Glutamate Neurotoxicity
Single cell suspensions were prepared from embryonic rat cortices (E16-17) by digestion with dispase 2.4 U/ml (BOEHRINGER) and subsequent trituration with fire polished pasteur pipettes. The cells were then plated on poly-D-lysine (SIGMA) coated 96 well microtiter plates (NUNC, 10⁵ cells/well) in a total volume of 100 µl Dulbeccos modified essential medium (DMEM, GIBCO) supplemented with 10% horse serum and penicillin/streptomycin (SIGMA). 5 days later, non-neuronal cell division was halted by exposure to […] combined with a 50% exchange of culture medium. The cultures were used for neurotoxicity assays from 8-12 days in vitro.
Acute glutamate toxicity was performed according to D.W. Choi. J. Koh and S. Peters, J. Neurosci. 8 (1988) 185-196, in 100 µl of a control salt solution (CSS: 120 mM NaCl, 5.4 mM KCl, 0.8 mm MgCl₂, 1.8 mM CaCl₂, 25 mM Tris HCl (pH 7.4 at 25°C) and 15 mM glycose) with 500 µM glutamate for 5 to 30 minutes at room temperature with or without addition of substances to be tested.
After washing, the cultures were maintained in 100 µl CSS overnight at 37°C. For quantitation of neurodegeneration, lactate dehydrogenase was measured in the cell culture supernatant as described by J.G. Klingman, D.M. Hartley and D.W. Choi, J. Neurosci. Meth. 31 (1990) 47-51 using a BIOMEK workstation (BECKMAN). […] From dose response curves IC₅₀ values were calculated.

These results are taken from EP0648744A1, “Phenylalkanolamine derivatives as antagonists of the NMDA receptor” (F. HOFFMANN-LA ROCHE AG, priority 1993, dated 1995).

In the case of `C[C@@H](CN1CCC(Cc2ccccc2)CC1)[C@@H](O)c1ccc(OCc2ccccc2)cc1` (relative stereo) [Ex. 7, (R*,S*)-rac.-β-Methyl-α-[4-(phenylmethoxy)phenyl]-4-(phenylmethyl)-1-piperidinepropanol], the results for the IC50 in experiment [1] and in experiment [2] were 1300 nM and 64000 nM, respectively.

Consider `CC(Cc1ccccc1)CN1CCC(Cc2ccccc2)CC1` (racemic) [Ex. 21, rac.-1-(2-Methyl-3-phenylpropyl)-4-(phenylmethyl)piperidine], for which the IC50 in experiment [1] turned out to be 1400 nM; in experiment [2] it was 13000 nM.

As for `C[C@H](CN1CCC(Cc2ccccc2)CC1)[C@H](O)c1ccc(O)cc1` [Ex. 16, [S-(R*S*)]-α-(4-Hydroxyphenyl)-β-methyl]-4-(phenylmethyl)-1-piperidinepropanol], the values for the IC50 in experiment [1] and in experiment [2] were 3 nM and 80 nM, respectively.

For `CC(CCN1CCC(Cc2ccccc2)CC1)Cc1ccc(O)cc1` (racemic) [Ex. 6, rac.-4-[2-Methyl-4-[4-(phenylmethyl)-1-piperidinyl]butyl]phenol], the IC50 in experiment [1] is 530 nM; in experiment [2], 3500 nM.

As for `C[C@H](CN1CCC(Cc2ccccc2)CC1)[C@@H](O)c1ccc(O)cc1` (relative stereo) [Ex. 9, (R*,R*)-rac.-α-(4-Hydroxyphenyl)-β-methyl-4-(phenylmethyl)-1-piperidinepropanol], the IC50 in experiment [1] was 6 nM; in experiment [2], 110 nM.

With `C[C@@H](CN1CCC(Cc2ccccc2)CC1)[C@@H](O)c1ccc(O)cc1` (relative stereo) [Ex. 8, (R*,S*)-rac.-α-(4-hydroxyphenyl)-β-methyl-4-(phenylmethyl)-1-piperidinepropanol], the results for the IC50 in experiment [1] and in experiment [2] were 5 nM and 40 nM, respectively.

Consider `C[C@@H](CN1CCC(Cc2ccccc2)CC1)[C@@H](O)c1ccc(O)cc1` [Ex. 15, [R-(R*S*)]-α-(4-Hydroxyphenyl)-β-methyl-4-(phenylmethyl)-1-piperidinepropanol], for which the values for the IC50 in experiment [1] and in experiment [2] were 1.3 nM and 60 nM, respectively.

With `C[C@@H](CN1CCC(Cc2ccccc2)CC1)C(=O)c1ccc(OCc2ccccc2)cc1` [Ex. 12, (S)-2-Methyl-1-[4-(phenylmethoxy)phenyl]-3-[4-(phenylmethyl)-1-piperidinyl]-1-propanone], the IC50 came to 900 nM in experiment [1] and 66000 nM in experiment [2].

On to `C[C@@H](CCN1CCC(Cc2ccccc2)CC1)[C@@H](O)c1ccc(O)cc1` (relative stereo) [Ex. 5, (R*,S*)-rac.-α-(4-Hydroxyphenyl)-β-methyl-4-(phenylmethyl)-1-piperidinebutanol], for which the IC50 in experiment [1] amounted to 300 nM; in experiment [2], 1900 nM.

Consider `CC(Cc1ccc(O)cc1)C(C)N1CCC(Cc2ccccc2)CC1` (racemic) [Ex. 10, rac.-4-[2-Methyl-3-[4-(phenylmethyl)-1-piperidinyl]butyl]phenol], for which the IC50 in experiment [1] came to 150 nM; in experiment [2], 120 nM.
